Results as given in ChEMBL document CHEMBL1629679, “Extended-spectrum cephalosporinases in Pseudomonas aeruginosa” (2009).

What was measured:
Pseudomonas aeruginosa [1] = assay: Ratio of Kcat to Km for Pseudomonas aeruginosa PDC-2 by spectrophotometer
Pseudomonas aeruginosa [2] = assay: Ratio of Kcat to Km for Pseudomonas aeruginosa PDC-3 by spectrophotometer
Pseudomonas aeruginosa [3] = assay: Activity at Pseudomonas aeruginosa PDC-2 by spectrophotometer
Pseudomonas aeruginosa [4] = assay: Activity at Pseudomonas aeruginosa PDC-3 by spectrophotometer

Compound	kcat/Km (Pseudomonas aeruginosa [1]) [M⁻¹ s⁻¹]	kcat/Km (Pseudomonas aeruginosa [2]) [M⁻¹ s⁻¹]	Km (Pseudomonas aeruginosa [3]) [µM]	kcat (Pseudomonas aeruginosa [3]) [s⁻¹]	Km (Pseudomonas aeruginosa [4]) [µM]	kcat (Pseudomonas aeruginosa [4]) [s⁻¹]
CC(C)(O/N=C(\C(=O)N[C@@H]1C(=O)N2C(C(=O)[O-])=C(C[n+]3ccccc3)CS[C@H]12)c1csc(N)n1)C(=O)O	500	600	20	0.01	35	0.02
CO/N=C(\C(=O)N[C@@H]1C(=O)N2C(C(=O)[O-])=C(C[N+]3(C)CCCC3)CS[C@H]12)c1csc(N)n1	2000	1500	850	2	1300	2
C[C@@H](O)[C@H]1C(=O)N2C(C(=O)O)=C(SCCNC=N)C[C@H]12	5000	5000	35	0.2	20	0.1
CC1(C)S[C@@H]2[C@H](NC(=O)Cc3ccccc3)C(=O)N2[C@H]1C(=O)O	1.2e+06	1.2e+06	30	35	30	35
CCN1CCN(C(=O)N[C@@H](C(=O)N[C@@H]2C(=O)N3[C@@H]2SC(C)(C)[C@@H]3C(=O)O)c2ccccc2)C(=O)C1=O	135000	125000	40	5.5	40	5
CO/N=C(\C(=O)N[C@@H]1C(=O)N2C(C(=O)O)=C(COC(C)=O)CS[C@H]12)c1csc(N)n1	30000	20000	5	5	8	0.15
